Earlier results, collected in US8163752B2, “Tricyclic anilide heterocyclic CGRP receptor antagonists” (Merck, Sharp & Dohme Corp., priority 2007, dated 2012).
No end group written: not given here.

What was measured:
[1] = system: acute attacks of migraine; details: clinical trials (Olesen et al. 2004)
facial blood flow [2] = details: marmoset, electrical stimulation of the trigeminal ganglion (Doods et al. 2000)
[3] = system: headache induced by CGRP infusion; details: control group (Petersen et al. 2005)
facial blood flow [4] = details: rat, trigeminal ganglion stimulation (Escott et al. 1995)
middle meningeal artery = details: rats, electrical stimulation of the dura mater, prior administration (Williamson et al. 1997)

| Compound | efficacy in treating acute attacks of migraine [1] | effect on increase in facial blood flow (facial blood flow [2]) | prevention of headache induced by CGRP infusion [3] | effect on increased facial blood flow (facial blood flow [4]) | effect on increase of middle meningeal artery diameter (middle meningeal artery) |
| --- | --- | --- | --- | --- | --- |
| NCCCC[C@H](NC(=O)[C@@H](Cc1cc(Br)c(O)c(Br)c1)NC(=O)N1CCC(N2Cc3ccccc3NC2=O)CC1)C(=O)N1CCN(c2ccncc2)CC1 [BIBN4096BS] | effective in treating acute attacks of migraine | could be blocked | able to prevent headache induced by CGRP infusion |  |  |
| CGRP(8-37): a peptide CGRP antagonist; fragment of CGRP that lacks seven N-terminal amino acid residues (VTHRLAGLLSRSGGVVKNNFVPTNVGSKAF; ends and bridges not checked; UniProt P06881 90-119, looked up, fragment) |  |  |  | inhibited | blocked |
